Measurements published in patent publication US11761894B2, “Silicon-rhodamine fluorescent probe containing hydrophobic group and use thereof” (AJOU UNIVERSITY INDUSTRY—ACADEMIC COOPERATION FOUNDATION, priority 2019, dated 2023).

Experiments:
[1] = tested on: mitochondria in HeLa cells; assay: Colocalization test of SiR-Mito probes with MitoTracker green in HeLa cells; assay type: cell-based, human; settings: 1 μM probe, 1 h; for Mitochondria Targeting (Pearson coefficient for colocalization with MitoTracker green): 0.5 μM MitoTracker green
Method: HeLa cells were incubated with cell culture media containing 1 μM SiR-Mito probe, and 0.5 μM MitoTracker green. After 1 h, HeLa cells were washed three times with 1×PBS for and observed with a LEICA DMi8 fluorescent microscope. Each experiment was observed using 512-542 nm emitter for FITC channel (for MitoTracker Green), and 663-738 nm exciter, 545-625 nm emitter for Cy5 channel (for SiR-Mito probes). Scale bar: 50 μm.
HeLa human cervical cancer cells were cultured in Dulbecco's modified eagle media (DMEM, GIBCO) containing 10% fetal bovine serum (FBS, GIBCO) and 1% penicillin (GIBCO) at 37° C. in a humidified incubator with 5% CO2. For the fluorescence microscope imaging, cells were harvested using TrypLE™ Express (GIBCO) and resuspended in fresh culture medium. Harvested cells with a density of 4.0×10^3 cells/well were seeded on a HeLa 96 black well plate (CORNING) and incubated for 24 h. Cells were incubated with SiR-Mito probes (1 μM) and MitoTracker Green (0.5 μM) for 60 min. After the incubation, cells were washed with 1×PBS for three times and observed with inverted fluorescence microscope (DMi8, LEICA). Each experiment was observed using a 325-375 nm exciter, 435-485 nm emitter for DAPI channel, 460-500 nm exciter, 512-542 nm emitter for FITC channel, 541-551 nm exciter, 565-605 nm emitter for Rhodamine channel, and 663-738 nm exciter, 545-625 nm emitter for Cy5 channel.
To determine the effect of probe hydrophobicity on the efficiency of targeting to mitochondria, the Pearson coefficient for colocalization of SiR-Mito probes and MitoTracker green, a commercial fluorescent mitochondrial bioprobe, was measured (FIG. 1). For the colocalization test, human cervical cancer HeLa cells were seeded on 96-well plates and incubated for 1 h with 1 μM of each different SiR-Mito probe and 0.5 μM MitoTracker green, washed briefly with 1×PBS, and imaged with a LEICA DMi8 fluorescent microscope using the 40× objective.

[2] = Photophysical properties (excitation/emission wavelength, absolute quantum yield, fluorescence intensity in PBS); assay type: physicochemical; settings: for Φ (quantum yield): absolute quantum yield
Method: All reactions were carried out under an atmosphere of nitrogen or argon in air-dried glassware with magnetic stirring. Air- and/or moisture-sensitive liquids were transferred with syringe. Organic solutions were concentrated by rotary evaporation at 25-60° C. at 15-30 torr. All solvents and common materials were purchased from suppliers and used without further purification. Column chromatography was carried out as “Flash Chromatography” using Biotage MPLC machine. ^1H NMR and ^13C NMR data were recorded on an JEOL ECZ-600R Magnetic Resonance System (600 MHz) in Ajou University. Recorded shifts are reported in parts per million (6): Chemical shift, multiplicity (s=singlet, d=doublet, t=triplet, q=quartet, m=multiplet, br=broad), coupling constant (J, Hz) and integration. Low resolution mass spectrometry (LRMS) was obtained by LC/MS system, Finnigan MSQplus Surveyer (Thermo Scientific) or 6120 Quadrupole LC/MS (Agilent Technologies). The progress of reaction was monitored using thin layer chromatography (TLC) (silica gel 60, F254 0.25 mm), and components were visualized by observation under UV light (254 and 365 nm) or by treating the TLC plates with Phosphonolybdic acid (PMA), KMnO4, or ninhydrin followed by heating. Cell culture reagents including fatal bovine serum, culture media, and antibiotic-antimycotic solution were purchased from GIBCO. MitoTracker Green, and Hoechst were purchased from Invitrogen. The culture dish and glassbottom dish were purchased from CORNING, and SPL. All spectra experiments were performed in a 1×1 cm quartz cuvette. Fluorescence emission spectra were recorded on JASCO FP-8200 spectrofluorometer, and UV absorption spectra were recorded on JASCO V-670 spectrophotometer. Absolute quantum yield was measured by QE-2000 (Otsuka Electronics).

| Molecule | Intracellular fluorescence (SiR channel) [1] | Em (emission wavelength) [2] | Ex (excitation wavelength) [2] | Φ (quantum yield) [2] | Mitochondria Targeting (Pearson coefficient for colocalization with MitoTracker green) [1] |
| --- | --- | --- | --- | --- | --- |
| Cc1ccc(C(=O)NCCO)cc1C1=C2C=CC(=[N+](C)C)C=C2[Si](C)(C)c2cc(N(C)C)ccc21 [SiR-Mito 1, N-(7-(dimethylamino)-10-(5-((2-hydroxyethyl)carbamoyl)-2-methylphenyl)-5,5-dimethyldibenzo[b,e]silin-3(5H)-ylidene)-N-methylmethanaminium] | absence of fluorescence signal | 668 nm | 661 nm | 0.32 |  |
| CCNC(=O)c1ccc(C)c(C2=C3C=CC(=[N+](C)C)C=C3[Si](C)(C)c3cc(N(C)C)ccc32)c1 [SiR-Mito 2, N-(7-(dimethylamino)-10-(5-(ethylcarbamoyl)-2-methylphenyl)-5,5-dimethyldibenzo[b,e]silin-3(5H)-ylidene)-N-methylmethanaminium] |  | 668 nm | 662 nm | 0.40 | * (* 0.7 ≤ R < 0.8) |
| CCCCNC(=O)c1ccc(C)c(C2=C3C=CC(=[N+](C)C)C=C3[Si](C)(C)c3cc(N(C)C)ccc32)c1 [SiR-Mito 3, N-(10-(5-(butylcarbamoyl)-2-methylphenyl)-7-(dimethylamino)-5,5-dimethyldibenzo[b,e]silin-3(5H)-ylidene)-N-methylmethanaminium] |  | 665 nm | 652 nm | 0.29 |  |
| Cc1ccc(C(=O)NCc2ccccc2)cc1C1=C2C=CC(=[N+](C)C)C=C2[Si](C)(C)c2cc(N(C)C)ccc21 [SiR-Mito 4, N-(10-(5-(benzylcarbamoyl)-2-methylphenyl)-7-(dimethylamino)-5,5-dimethyldibenzo[b,e]silin-3(5H)-ylidene)-N-methylmethanaminium] |  | 666 nm | 651 nm | 0.30 | * (* 0.7 ≤ R < 0.8) |
| Cc1ccc(C(=O)NCCc2ccccc2)cc1C1=C2C=CC(=[N+](C)C)C=C2[Si](C)(C)c2cc(N(C)C)ccc21 [SiR-Mito 6, N-(7-(dimethylamino)-5,5-dimethyl-10-(2-methyl-5-(phenethylcabamoyl)phenyl)dibenzo[b,e]silin-3(5H)-ylidene)-N-methylmethanaminium] |  | 668 nm | 651 nm | 0.30 | *** (*** 0.9 ≤ R) |
| Cc1ccc(C(=O)NC(C)(C)CC(C)(C)C)cc1C1=C2C=CC(=[N+](C)C)C=C2[Si](C)(C)c2cc(N(C)C)ccc21 [SiR-Mito 7, N-(7-(dimethylamino)-5,5-dimethyl-10-(2-methyl-5-((2,4,4-trimethylpentan-2-yl)carbamoyl)phenyl)dibenzo[b,e]silin-3(5H)-ylidene)-N-methylmethanaminium] |  | 667 nm | 650 nm | 0.29 | *** (*** 0.9 ≤ R) |
| Cc1ccc(C(=O)NCCC2CCCCC2)cc1C1=C2C=CC(=[N+](C)C)C=C2[Si](C)(C)c2cc(N(C)C)ccc21 [SiR-Mito 9, N-(10-(5-((2-cyclohexylethyl)carbamoyl)-2-methylphenyl)-7-(dimethylamino)-5,5-dimethyldibenzo[b,e]silin-3(5H)-ylidene)-N-methylmethanaminium] |  | 666 nm | 652 nm | 0.26 | *** (*** 0.9 ≤ R) |
| CCCCCCC(C)NC(=O)c1ccc(C)c(C2=C3C=CC(=[N+](C)C)C=C3[Si](C)(C)c3cc(N(C)C)ccc32)c1 (centres unmarked) [SiR-Mito 10, N-(7-(dimethylamino)-5,5-dimethyl-10-(2-methyl-5-(octan-2-ylcarbamoyl)phenyl)dibenzo[b,e]silin-3(5H)-ylidene)-N-methylmethanaminium] |  | 667 nm | 654 nm | 0.27 | *** (*** 0.9 ≤ R) |
| N-(10-(5-((cyclohexylmethyl) carbamoyl)-2-methylphenyl)-7 (dimethylamino)-5,5-dimethyldibenzo[b,e]silin-3(5H)-ylidene)-N-methylmethanaminium [SiR-Mito 5] |  | 669 nm | 651 nm | 0.29 | * (* 0.7 ≤ R < 0.8) |
